Experimental data from PMC5620609 (Pharmaceuticals, 2017).

Assays:
RNR = biological target: T1, RNR (Homo sapiens, UniProt P23921); test: RNR inhibition whole cell assay (HPLC of nucleotides from HeLa cell extracts); format: cell-based; settings: 50 µM, 16 h
T1 construct: endogenous in cells; host or cells: HeLa
T1 sequence (P23921 1-792): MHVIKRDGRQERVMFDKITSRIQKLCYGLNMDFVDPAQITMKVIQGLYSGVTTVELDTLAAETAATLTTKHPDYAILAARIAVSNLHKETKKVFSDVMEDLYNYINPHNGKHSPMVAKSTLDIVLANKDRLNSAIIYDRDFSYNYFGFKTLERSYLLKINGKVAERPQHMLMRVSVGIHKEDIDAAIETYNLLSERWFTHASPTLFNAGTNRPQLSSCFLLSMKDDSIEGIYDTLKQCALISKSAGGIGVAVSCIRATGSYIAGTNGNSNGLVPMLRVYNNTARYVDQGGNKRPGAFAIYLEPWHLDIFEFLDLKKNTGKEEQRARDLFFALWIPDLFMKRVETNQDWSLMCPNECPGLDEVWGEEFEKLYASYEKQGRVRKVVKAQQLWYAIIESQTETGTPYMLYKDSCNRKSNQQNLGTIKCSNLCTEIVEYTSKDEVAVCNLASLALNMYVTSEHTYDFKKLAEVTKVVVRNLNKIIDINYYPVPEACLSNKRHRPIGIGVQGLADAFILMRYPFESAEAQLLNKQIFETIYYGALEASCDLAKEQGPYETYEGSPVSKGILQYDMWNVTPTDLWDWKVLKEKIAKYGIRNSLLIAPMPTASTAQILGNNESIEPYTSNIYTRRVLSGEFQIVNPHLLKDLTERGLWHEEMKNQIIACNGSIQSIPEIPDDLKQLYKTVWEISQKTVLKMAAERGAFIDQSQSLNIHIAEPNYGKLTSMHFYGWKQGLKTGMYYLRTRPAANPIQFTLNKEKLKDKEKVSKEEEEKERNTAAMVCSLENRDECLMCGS
T1 sequence (P31350 1-389 partner): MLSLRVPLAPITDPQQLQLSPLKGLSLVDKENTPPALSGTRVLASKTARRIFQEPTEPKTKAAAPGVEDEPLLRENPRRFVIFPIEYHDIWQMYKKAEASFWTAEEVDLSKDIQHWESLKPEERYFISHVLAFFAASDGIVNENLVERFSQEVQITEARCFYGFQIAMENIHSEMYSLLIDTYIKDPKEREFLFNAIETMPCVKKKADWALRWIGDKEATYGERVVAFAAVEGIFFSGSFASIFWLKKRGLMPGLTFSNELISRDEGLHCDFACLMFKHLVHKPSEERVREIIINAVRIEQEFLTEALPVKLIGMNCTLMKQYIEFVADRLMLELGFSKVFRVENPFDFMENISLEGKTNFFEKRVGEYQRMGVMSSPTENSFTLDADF
Source text: Gemcitabine was used as a positive control.
The method used to extract and quantitate nucleotides followed previously reported procedures.

[1] = reported for decitabine; cited from earlier work
in vivo = settings: mouse, iv, 5 mg/kg
Method: Three mice were placed in a dose group on the first day of treatment (Day 1). […] Animals were observed daily for mortality and moribundity. Body weights were measured daily starting on day 1.

[2] = system: human colon cancer cell line HCT-116; test: In vitro growth inhibition (CellTiter-Glo), HCT-116; format: cell-based; settings: HCT 116 TP53(-/-), read-out: GI50 (concentration of drug that inhibited 50% of cell growth), 72 h exposure
Method: Cells were grown in an appropriate medium for the cell line of interest; 96 well plates of each cell line were seeded with 5000 cells per well and left overnight. Drug exposed cells were incubated at 37 °C for 72 h. At the end of the 72 h exposure period, plates were removed for the CellTiter-Glo® assay. Luminescence was recorded on a Synergy 4.0. Assays were performed in triplicate.

total DNMT = test: Total DNMT inhibition, colorimetric assay in HCT-116 cells; format: cell-based, human; settings: 24 h
Method: Total DNMT activity was measured in the colon cancer cell line HCT-116. The assay was performed using the EpiQuick^TM DNA Methyltransferase Activity/Inhibition Assay Kit (Epigentek, Brooklyn, NY, USA). […] Assays were performed three times in triplicate.

In the case of `Nc1ccn([C@@H]2O[C@H](CO)[C@@H](O)C2(F)F)c(=O)n1` [Gemcitabine, gemcitabine, reference compound], the ADP concentration (RNR) was 15,639, the ATP concentration (RNR) was 26,296 and the CTP concentration (RNR) was 1297. For the same compound, the GTP concentration (RNR) was 2036, the UTP concentration (RNR) was 4801 and the “dATP, peak area” value (RNR) was 0 AU. For the same compound, the “dGDP, peak area” value (RNR) was 7.95 AU, the “dTDP, peak area” value (RNR) was 43.4 AU and the “dUTP, peak area” value (RNR) was 5.3 AU.

In the case of `Nc1ncn([C@H]2C[C@H](O)[C@@H](CO)O2)c(=O)n1` [decitabine, 5-aza-2′-deoxycytidine], the half-life [1] is given as 30 min and the MTD at 3 weeks (in vivo) is given as < 5 mg/kg.

In the case of `Nc1ncn([C@@H]2O[C@H](CO)[C@@H](O)[C@H]2O)c(=O)n1` [5-azacytidine], the GI50 [2] was 620 nM, the “inhibition of total DNMT” value (total DNMT; 1 µM, mean of 3 experiments) was 19.2% and the “inhibition of total DNMT” value (total DNMT; 10 µM) was 48.6%.
